Reference: patent publication US11739337B2, “Gadusol derivative production in bacteria” (Oregon State University, priority 2019, dated 2023)
Where two headings read alike, the source gives them in different places.

Columns and labels:
[1] = cited from earlier work
[2] = Solubility in methanol; format: physicochemical
[3] = UV absorbance maximum (λmax); format: physicochemical; conditions: for UV maximum: under acidic conditions, HPLC of culture broth
Protocol: Gadusporine A (see FIG. 5A), a yellow-brown solid, UV (50 mM phosphate buffer pH 7) λmax 340 nm, (50 mM acetic acid pH 3) λmax 338 nm. ^1H NMR (700 MHz, D2O) and ^13C NMR (175 MHz, D2O) see Table 3. HR-ESIMS m/z 349.1239 [M+H]^+ (calculated for C13H20N2O9, 349.1247).
Gadusporine A was produced at 20 mg/L. Gadusol was produced by pTMAO-G1 at of 29 mg/L.
Shinorine has been reported to have λmax=330 nm at pH 1.7 and λmax=334 nm at pH 7. […] Gadusporine A has a molar extinction coefficient ε=49,400, as measured in 50 mM phosphate buffer at pH 7.0, which is slightly higher than shinorine (ε=44,000), thus stronger UV absorbance activity.

[4] = background statement; cited from earlier work
[5] = comparison value for shinorine; cited from earlier work
[6] = Molar extinction coefficient by UV absorbance at 340 nm; format: physicochemical; conditions: 50 mM phosphate buffer at pH 7.0, absorbance at 340 nm; in M-1 cm-1 (unit assumed)
Protocol: S. coelicolor A(3)2 pTMAO-G3 was cultured as described above at larger scales and 225 mL of S. coelicolor pTMAO-G3 culture broth was dried to ˜20 mL and passed through a C18 solid phase extraction (SPE) column. Gadusol and gadusporines were mostly un-retained, however, washing with water for 1-2 column volumes (CVs) eluted the remaining compounds. The eluent was combined and dried to ˜20 mL, which was applied directly to a 300 mL Bio-Rad AG®-1×8 (acetate form) column. After washing with 2 L of water, 500 mM acetic acid was used to elute gadusol and gadusporines. All fractions containing both gadusol and gadusporines were combined and fractions lacking gadusol but containing gadusporines were combined separately and dried. The gadusol-free fraction was further purified using the preparative HPLC as described previously to give gadusporine A (9.0 mg) (see FIG. 5A) as two different isomers. All NMR experiments were performed on a 700 MHz Bruker NMR Spectrometer with a cryo probe at the Oregon State University (OSU) NMR facility. The molar extinction coefficient of gadusporine A was determined by dissolving 0.6 mg in 50 mM phosphate buffer at pH 7.0 in a 25 mL volumetric flask then measuring UV absorbance at 340 nm.

For C/C=C\NC1=C(OC)C(=NCC(=O)O)CC(O)(CO)C1 (centres unmarked) [usujirene], the λmax ([1]; background, no pH given) is given as 357 nm.
For prasiolin, the λmax ([1]; background, no pH given) is given as 324 nm.
In the case of C/C=C/NC1=C(OC)C(=NCC(=O)O)CC(O)(CO)C1 (centres unmarked) [palythene], the λmax ([1]; background, no pH given) is listed as 360 nm.
In the case of COC1=C(NCC(=O)O)C[C@@](O)(CO)[C@@H](O)/C1=N\[C@@H](C)C(=O)O [gadusporine B, (S)-2-(((5R,6S,E)-3-((carboxymethyl)amino)-5,6-dihydroxy-5-(hydroxymethyl)-2-methoxycyclohex-2-en-1-ylidene)amino)propanoic acid], the solubility in methanol [2] is reported as “not very soluble in methanol”, the “UV λmax” value ([3]; 50 mM acetic acid pH 3) is reported as 338 nm and the “UV λmax” value ([3]; 50 mM phosphate buffer pH 7) is reported as 340 nm. For the same molecule, the UV maximum [3] was 338 nm.
For COC1=C(O)CC(O)(CO)C(O)C1=O (centres unmarked) [Gadusol, gadusol], the UV absorbance maxima ([1]; pH 2.5) is given as 268 nm, the UV absorbance maxima ([1]; pH 7.0) is given as 296 nm and the antioxidant activity [4] is given as “antioxidant activity”.
For COC1=C(NCC(=O)O)C[C@@](O)(CO)C/C1=N\[C@@H](CO)C(=O)O [Shinorine, shinorine], the λmax ([1]; pH 1.7, reported) is given as 330 nm, the λmax ([1]; pH 7, reported) is given as 334 nm and the solubility in methanol [2] is given as “readily dissolved in methanol”. For the same molecule, the “molar extinction coefficient ε” value [5] was 44,000.
In the case of COC1=C(NCC(=O)O)C[C@@](O)(CO)[C@@H](O)/C1=N\[C@@H](CO)C(=O)O [gadusporine A, (S)-2-(((5R,6S,E)-3-((carboxymethyl)amino)-5,6-dihydroxy-5-(hydroxymethyl)-2-methoxycyclohex-2-en-1-ylidene)amino)-3-hydroxypropanoic acid], the “molar extinction coefficient ε” value [6] is reported as 49,400, the “UV λmax” value ([3]; 50 mM acetic acid pH 3) is reported as 338 nm and the “UV λmax” value ([3]; 50 mM phosphate buffer pH 7) is reported as 340 nm. The λmax ([3]; pH 2.0) was 338 nm, the λmax ([3]; pH 7.0) was 340 nm and the UV maximum [3] was 338 nm.
